Measured values as given in publication PMC7347136 (PLoS ONE, 2020).

Assays:
Experiment in all cases: Carna kinase panel screen
Assay type in all cases: biochemical
Conditions in all cases: read-out: % Inhibition ± SD
AKT1 = target: T1, AKT1 (Homo sapiens, UniProt P31749)
T1 construct: purchased Carna Biosciences
In short: (§1)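 Read-out is percent inhibition, plotted against compound concentration and fitted to a four-parameter logistic model to give IC50. Curves comprised 10 points, with ATP approximating Km.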

ALK = target: T2, ALK (Homo sapiens, UniProt Q9UM73)
T2 construct: purchased Carna Biosciences
In short: as §1

AMPKa1 = target: T3, AMPKa1 (Homo sapiens, UniProt Q13131)
T3 construct: purchased Carna Biosciences
In short: as §1

AurA = target: T4, AurA (Homo sapiens, UniProt O14965)
T4 construct: purchased Carna Biosciences
In short: as §1

CDC2 = target: T5, CDC2 (Homo sapiens, UniProt P06493)
T5 construct: purchased Carna Biosciences
In short: as §1

CGK2 = target: T6, CGK2 (Homo sapiens, UniProt Q13237)
T6 construct: purchased Carna Biosciences
T6 sequence (Q13237 whole entry): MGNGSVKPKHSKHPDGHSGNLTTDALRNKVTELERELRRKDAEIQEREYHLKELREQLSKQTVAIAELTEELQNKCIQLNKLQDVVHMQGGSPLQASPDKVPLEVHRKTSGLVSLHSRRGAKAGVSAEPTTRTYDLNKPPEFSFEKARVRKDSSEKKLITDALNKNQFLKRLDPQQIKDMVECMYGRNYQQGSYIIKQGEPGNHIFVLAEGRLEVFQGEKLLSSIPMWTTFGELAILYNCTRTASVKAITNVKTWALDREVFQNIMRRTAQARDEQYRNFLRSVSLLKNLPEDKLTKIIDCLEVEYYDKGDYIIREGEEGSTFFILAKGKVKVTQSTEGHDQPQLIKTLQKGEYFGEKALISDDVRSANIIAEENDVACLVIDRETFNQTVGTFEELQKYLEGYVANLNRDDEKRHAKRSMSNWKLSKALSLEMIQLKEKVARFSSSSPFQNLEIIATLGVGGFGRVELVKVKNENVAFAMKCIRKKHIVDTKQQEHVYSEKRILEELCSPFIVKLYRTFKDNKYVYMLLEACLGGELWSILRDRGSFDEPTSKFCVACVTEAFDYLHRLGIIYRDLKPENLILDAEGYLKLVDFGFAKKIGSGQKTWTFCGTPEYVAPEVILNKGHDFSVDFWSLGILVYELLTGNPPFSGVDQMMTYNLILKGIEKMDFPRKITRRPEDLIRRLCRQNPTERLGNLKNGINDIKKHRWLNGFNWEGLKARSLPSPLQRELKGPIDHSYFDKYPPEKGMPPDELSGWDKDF
In short: as §1

CK1a = target: T7, CK1a (Homo sapiens, UniProt P48729)
T7 construct: purchased Carna Biosciences
In short: as §1

CaMK4 = target: T8, CaMK4 (Homo sapiens, UniProt Q16566)
T8 construct: purchased Carna Biosciences
In short: as §1

DDR1 = target: T9, DDR1 (Homo sapiens, UniProt Q08345)
T9 construct: purchased Carna Biosciences
In short: (§2)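 Ten-point dose-response, ATP ≈ Km. % inhibition vs concentration → 4-parameter logistic fit → IC50.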

EGFR[T790M] = target: T10, EGFR[T790M] (Homo sapiens, UniProt P00533, T790M)
T10 construct: purchased Carna Biosciences
In short: as §1

EphA5 = target: T11, EphA5 (Homo sapiens, UniProt P54756)
T11 construct: purchased Carna Biosciences
In short: as §1

EphA6 = target: T12, EphA6 (Homo sapiens, UniProt Q9UF33)
T12 construct: purchased Carna Biosciences
In short: as §1

FGFR3 = target: T13, FGFR3 (Homo sapiens, UniProt P22607)
T13 construct: purchased Carna Biosciences
In short: as §1

FYN = target: T14, FYN (Homo sapiens, UniProt P06241)
T14 construct: purchased Carna Biosciences
In short: as §1

HCK = target: T15, HCK (Homo sapiens, UniProt P08631)
T15 construct: purchased Carna Biosciences
In short: as §1

HIPK2 = target: T16, HIPK2 (Homo sapiens, UniProt Q9H2X6)
T16 construct: purchased Carna Biosciences
T16 sequence (Q9H2X6 whole entry): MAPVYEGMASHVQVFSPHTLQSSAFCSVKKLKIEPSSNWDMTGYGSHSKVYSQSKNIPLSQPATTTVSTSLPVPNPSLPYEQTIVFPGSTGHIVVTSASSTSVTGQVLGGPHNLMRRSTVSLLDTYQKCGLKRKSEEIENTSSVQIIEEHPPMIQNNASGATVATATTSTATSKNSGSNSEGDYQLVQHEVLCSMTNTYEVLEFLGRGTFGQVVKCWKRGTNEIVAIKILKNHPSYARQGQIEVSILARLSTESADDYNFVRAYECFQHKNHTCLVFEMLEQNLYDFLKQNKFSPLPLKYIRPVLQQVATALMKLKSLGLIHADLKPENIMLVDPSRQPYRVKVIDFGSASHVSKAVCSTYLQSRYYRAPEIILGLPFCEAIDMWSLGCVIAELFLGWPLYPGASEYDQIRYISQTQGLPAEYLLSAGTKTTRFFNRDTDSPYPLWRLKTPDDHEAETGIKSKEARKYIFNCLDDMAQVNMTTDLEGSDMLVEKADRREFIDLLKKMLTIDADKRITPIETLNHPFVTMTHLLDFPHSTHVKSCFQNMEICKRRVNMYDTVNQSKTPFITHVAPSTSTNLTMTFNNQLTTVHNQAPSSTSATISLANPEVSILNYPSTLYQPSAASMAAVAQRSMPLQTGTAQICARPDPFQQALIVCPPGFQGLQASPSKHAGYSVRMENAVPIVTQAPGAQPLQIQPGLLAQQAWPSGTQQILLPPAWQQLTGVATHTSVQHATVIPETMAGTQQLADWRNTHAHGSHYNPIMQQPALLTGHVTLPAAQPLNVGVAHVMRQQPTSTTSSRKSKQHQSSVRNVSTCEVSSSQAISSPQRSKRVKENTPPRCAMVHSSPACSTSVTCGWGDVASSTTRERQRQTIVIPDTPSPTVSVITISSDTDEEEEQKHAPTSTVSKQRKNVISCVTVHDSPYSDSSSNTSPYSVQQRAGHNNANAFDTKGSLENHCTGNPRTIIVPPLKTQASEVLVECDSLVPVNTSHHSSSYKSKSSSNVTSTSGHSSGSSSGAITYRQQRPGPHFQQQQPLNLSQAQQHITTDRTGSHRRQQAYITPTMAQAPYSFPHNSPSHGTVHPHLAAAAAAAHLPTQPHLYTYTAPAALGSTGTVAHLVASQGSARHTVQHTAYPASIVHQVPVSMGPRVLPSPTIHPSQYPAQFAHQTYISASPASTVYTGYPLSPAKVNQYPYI
In short: as §1

IRR = target: T17, IRR (Homo sapiens, UniProt P14616)
T17 construct: purchased Carna Biosciences
T17 sequence (P14616 27-1297): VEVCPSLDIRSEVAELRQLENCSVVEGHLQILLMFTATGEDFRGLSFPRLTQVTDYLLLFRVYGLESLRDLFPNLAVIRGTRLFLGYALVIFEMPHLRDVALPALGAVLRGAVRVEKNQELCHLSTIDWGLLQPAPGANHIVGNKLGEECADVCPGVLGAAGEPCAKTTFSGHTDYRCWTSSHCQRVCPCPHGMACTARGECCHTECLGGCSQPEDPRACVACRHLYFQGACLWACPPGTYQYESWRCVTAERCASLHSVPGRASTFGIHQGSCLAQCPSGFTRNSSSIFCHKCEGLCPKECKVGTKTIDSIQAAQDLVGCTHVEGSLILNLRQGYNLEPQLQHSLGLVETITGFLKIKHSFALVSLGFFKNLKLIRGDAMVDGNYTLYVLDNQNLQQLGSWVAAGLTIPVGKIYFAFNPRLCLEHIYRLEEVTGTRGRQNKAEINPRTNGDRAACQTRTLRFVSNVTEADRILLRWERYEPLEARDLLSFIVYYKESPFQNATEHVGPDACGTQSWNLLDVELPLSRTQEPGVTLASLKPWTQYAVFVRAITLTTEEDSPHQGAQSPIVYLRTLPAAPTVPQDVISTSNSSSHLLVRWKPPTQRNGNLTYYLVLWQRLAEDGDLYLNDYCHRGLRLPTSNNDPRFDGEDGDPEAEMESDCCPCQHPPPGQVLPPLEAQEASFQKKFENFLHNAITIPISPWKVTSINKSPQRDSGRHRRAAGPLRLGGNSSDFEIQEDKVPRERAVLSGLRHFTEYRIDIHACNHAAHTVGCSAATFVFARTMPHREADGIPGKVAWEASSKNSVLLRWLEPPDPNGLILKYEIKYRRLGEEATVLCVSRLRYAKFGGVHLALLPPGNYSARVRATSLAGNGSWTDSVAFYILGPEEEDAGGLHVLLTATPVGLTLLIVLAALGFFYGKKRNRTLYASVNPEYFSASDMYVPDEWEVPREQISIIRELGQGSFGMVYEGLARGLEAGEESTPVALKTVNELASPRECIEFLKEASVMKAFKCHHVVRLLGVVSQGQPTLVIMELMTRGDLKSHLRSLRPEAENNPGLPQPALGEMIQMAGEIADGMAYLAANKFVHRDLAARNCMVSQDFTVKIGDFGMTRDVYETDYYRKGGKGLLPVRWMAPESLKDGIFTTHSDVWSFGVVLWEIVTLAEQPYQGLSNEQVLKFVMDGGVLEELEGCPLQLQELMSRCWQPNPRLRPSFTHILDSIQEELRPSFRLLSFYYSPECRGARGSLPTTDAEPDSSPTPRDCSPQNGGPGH
In short: as §2

ITK = target: T18, ITK (Homo sapiens, UniProt Q08881)
T18 construct: purchased Carna Biosciences
In short: as §2

JAK3 = target: T19, JAK3 (Homo sapiens, UniProt P52333)
T19 construct: purchased Carna Biosciences
In short: as §1

LIMK1 = target: T20, LIMK1 (Homo sapiens, UniProt P53667)
T20 construct: purchased Carna Biosciences
In short: as §2

MAP3K3 = target: T21, MAP3K3 (Homo sapiens, UniProt Q99759)
T21 construct: purchased Carna Biosciences
In short: as §1

MAP4K2 = target: T22, MAP4K2 (Homo sapiens, UniProt Q12851)
T22 construct: purchased Carna Biosciences
In short: as §2

MINK = target: T23, MINK (Homo sapiens, UniProt Q8N4C8)
T23 construct: purchased Carna Biosciences
In short: as §1

MSK2 = target: T24, MSK2 (Homo sapiens, UniProt O75676)
T24 construct: purchased Carna Biosciences
In short: as §1

MST4 = target: T25, MST4 (Homo sapiens, UniProt Q9P289)
T25 construct: purchased Carna Biosciences
In short: as §1

MUSK = target: T26, MUSK (Homo sapiens, UniProt O15146)
T26 construct: purchased Carna Biosciences
In short: as §1

PAK1 = target: T27, PAK1 (Homo sapiens, UniProt Q13153)
T27 construct: purchased Carna Biosciences
In short: as §1

PASK = target: T28, PASK (Homo sapiens, UniProt Q96RG2)
T28 construct: purchased Carna Biosciences
In short: as §1

PBK = target: T29, PBK (Homo sapiens, UniProt Q96KB5)
T29 construct: purchased Carna Biosciences
In short: as §1

PEK = target: T30, PEK (Homo sapiens, UniProt Q9NZJ5)
T30 construct: purchased Carna Biosciences
In short: as §1

PHKG1 = target: T31, PHKG1 (Homo sapiens, UniProt Q16816)
T31 construct: purchased Carna Biosciences
T31 sequence (Q16816 whole entry): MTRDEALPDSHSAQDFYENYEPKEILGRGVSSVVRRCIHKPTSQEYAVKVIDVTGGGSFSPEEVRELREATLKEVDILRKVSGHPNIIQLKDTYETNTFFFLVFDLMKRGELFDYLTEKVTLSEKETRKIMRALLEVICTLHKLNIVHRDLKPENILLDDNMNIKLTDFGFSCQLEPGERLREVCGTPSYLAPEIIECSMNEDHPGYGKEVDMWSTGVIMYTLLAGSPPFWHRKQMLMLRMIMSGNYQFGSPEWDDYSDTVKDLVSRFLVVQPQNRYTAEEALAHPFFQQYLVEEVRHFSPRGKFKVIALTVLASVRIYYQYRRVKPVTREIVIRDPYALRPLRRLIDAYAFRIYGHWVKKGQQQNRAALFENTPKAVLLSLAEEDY
In short: as §1

PKCa = target: T32, PKCa (Homo sapiens, UniProt P17252)
T32 construct: purchased Carna Biosciences
In short: as §1

PKCe = target: T33, PKCe (Homo sapiens, UniProt Q02156)
T33 construct: purchased Carna Biosciences
In short: as §1

PKD1 = target: T34, PKD1 (Homo sapiens, UniProt Q15139)
T34 construct: purchased Carna Biosciences
In short: as §2

PLK1 = target: T35, PLK1 (Homo sapiens, UniProt P53350)
T35 construct: purchased Carna Biosciences
In short: as §1

PLK3 = target: T36, PLK3 (Homo sapiens, UniProt Q9H4B4)
T36 construct: purchased Carna Biosciences
In short: as §1

RON = target: T37, RON (Homo sapiens, UniProt Q04912)
T37 construct: purchased Carna Biosciences
T37 sequence (Q04912 25-1400): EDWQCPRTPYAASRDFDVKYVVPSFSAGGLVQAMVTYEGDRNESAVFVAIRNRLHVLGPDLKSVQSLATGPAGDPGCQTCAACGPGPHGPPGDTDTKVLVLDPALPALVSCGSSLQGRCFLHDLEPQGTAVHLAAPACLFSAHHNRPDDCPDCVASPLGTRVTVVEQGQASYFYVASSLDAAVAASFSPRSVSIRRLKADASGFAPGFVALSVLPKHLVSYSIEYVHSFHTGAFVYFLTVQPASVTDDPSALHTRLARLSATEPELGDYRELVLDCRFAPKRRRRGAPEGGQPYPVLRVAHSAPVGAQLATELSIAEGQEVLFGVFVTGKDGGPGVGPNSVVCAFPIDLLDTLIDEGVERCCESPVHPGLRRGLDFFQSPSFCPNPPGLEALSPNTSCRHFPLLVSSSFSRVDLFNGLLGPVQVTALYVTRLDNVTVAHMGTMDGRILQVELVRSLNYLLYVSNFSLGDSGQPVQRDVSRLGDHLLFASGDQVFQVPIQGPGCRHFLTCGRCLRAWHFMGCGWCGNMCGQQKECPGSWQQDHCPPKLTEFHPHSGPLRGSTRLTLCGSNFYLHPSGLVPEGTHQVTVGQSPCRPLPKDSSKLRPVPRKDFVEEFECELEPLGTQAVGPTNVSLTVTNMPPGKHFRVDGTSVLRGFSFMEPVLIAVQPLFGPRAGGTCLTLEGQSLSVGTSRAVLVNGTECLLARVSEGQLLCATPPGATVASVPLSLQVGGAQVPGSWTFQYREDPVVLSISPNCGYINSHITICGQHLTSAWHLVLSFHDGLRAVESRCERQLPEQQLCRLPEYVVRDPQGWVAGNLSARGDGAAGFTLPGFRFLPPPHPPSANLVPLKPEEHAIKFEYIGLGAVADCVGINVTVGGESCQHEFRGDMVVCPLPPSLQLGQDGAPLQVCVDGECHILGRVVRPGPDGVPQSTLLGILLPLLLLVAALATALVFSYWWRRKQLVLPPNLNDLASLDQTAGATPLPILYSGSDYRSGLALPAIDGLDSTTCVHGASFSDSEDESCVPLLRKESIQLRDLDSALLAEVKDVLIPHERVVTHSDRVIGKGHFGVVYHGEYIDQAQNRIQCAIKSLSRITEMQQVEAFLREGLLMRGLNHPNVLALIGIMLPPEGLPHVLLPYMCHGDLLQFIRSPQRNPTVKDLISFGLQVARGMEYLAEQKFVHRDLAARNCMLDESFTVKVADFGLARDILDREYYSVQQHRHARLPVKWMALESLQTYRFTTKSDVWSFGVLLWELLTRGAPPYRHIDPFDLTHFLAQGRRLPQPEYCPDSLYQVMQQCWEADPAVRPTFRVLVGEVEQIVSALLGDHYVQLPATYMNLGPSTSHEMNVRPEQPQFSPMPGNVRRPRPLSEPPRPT
In short: as §1

RSK1 = target: T38, RSK1 (Homo sapiens, UniProt Q15418)
T38 construct: purchased Carna Biosciences
In short: as §1

SGK2 = target: T39, SGK2 (Homo sapiens, UniProt Q9HBY8)
T39 construct: purchased Carna Biosciences
In short: as §1

SLK = target: T40, SLK (Homo sapiens, UniProt Q9H2G2)
T40 construct: purchased Carna Biosciences
In short: as §1

TEC = target: T41, TEC (Homo sapiens, UniProt P42680)
T41 construct: purchased Carna Biosciences
In short: as §1

TRKB = target: T42, TRKB (Homo sapiens, UniProt Q16620)
T42 construct: purchased Carna Biosciences
In short: as §1

TXK = target: T43, TXK (Homo sapiens, UniProt P42681)
T43 construct: purchased Carna Biosciences
In short: as §1

TYRO3 = target: T44, TYRO3 (Homo sapiens, UniProt Q06418)
T44 construct: purchased Carna Biosciences
In short: as §1

CC[C@H](Nc1nc(NCc2cnc(C)cc2C)c2ncn(C(C)C)c2n1)[C@@H](C)O [Fadraciclib, 2-pentanol, 3-[[6-[[(4,6-dimethyl-3-pyridinyl)methyl]amino]-9-(1-methylethyl)-9Hpurin-2-yl]amino]-, (2R,3S)]
inhibition at 1 µM (AKT1): -0.6% | inhibition at 1 µM (ALK): -9 ± 0.3% | inhibition at 1 µM (AMPKa1): -3.8% | inhibition at 1 µM (AurA): -16.2 ± 0.4% | inhibition at 1 µM (CDC2): 57.9 ± 1.3% | inhibition at 1 µM (CGK2): -12.6 ± 0.5% | inhibition at 1 µM (CK1a): 8.2 ± 0.3% | inhibition at 1 µM (CaMK4): -4.8 ± 0.1% | inhibition at 1 µM (DDR1): -9.3 ± 0.1% | inhibition at 1 µM (EGFR[T790M]): -9.6 ± 0.1% | inhibition at 1 µM (EphA5): 4.9 ± 0.2% | inhibition at 1 µM (EphA6): 5.7 ± 0.3% | inhibition at 1 µM (FGFR3): -5.6 ± 0.2% | inhibition at 1 µM (FYN): 7.4 ± 0.3% | inhibition at 1 µM (HCK): -4.9 ± 0.1% | inhibition at 1 µM (HIPK2): 2.5 ± 0.1% | inhibition at 1 µM (IRR): -5.5% | inhibition at 1 µM (ITK): 2.3 ± 0.1% | inhibition at 1 µM (JAK3): -9.5% | inhibition at 1 µM (LIMK1): 12.3 ± 0.4% | inhibition at 1 µM (MAP3K3): -2.6 ± 0.1% | inhibition at 1 µM (MAP4K2): 2 ± 0.1% | inhibition at 1 µM (MINK): -15.8 ± 0.3% | inhibition at 1 µM (MSK2): -3.7% | inhibition at 1 µM (MST4): -2.1% | inhibition at 1 µM (MUSK): 11.4 ± 0.3% | inhibition at 1 µM (PAK1): -5.8 ± 0.2% | inhibition at 1 µM (PASK): -0.4% | inhibition at 1 µM (PBK): -0.9% | inhibition at 1 µM (PEK): 0.3% | inhibition at 1 µM (PHKG1): -15 ± 0.4% | inhibition at 1 µM (PKCa): 17.8 ± 0.5% | inhibition at 1 µM (PKCe): 7.6 ± 0.1% | inhibition at 1 µM (PKD1): 12.4 ± 0.5% | inhibition at 1 µM (PLK1): 5.7 ± 0.3% | inhibition at 1 µM (PLK3): 5.7 ± 0.3% | inhibition at 1 µM (RON): 1.6 ± 0.1% | inhibition at 1 µM (RSK1): 5.1% | inhibition at 1 µM (SGK2): 0.9% | inhibition at 1 µM (SLK): 2.5 ± 0.1% | inhibition at 1 µM (TEC): -14.9% | inhibition at 1 µM (TRKB): -11.4 ± 0.4% | inhibition at 1 µM (TXK): 3.1 ± 0.1% | inhibition at 1 µM (TYRO3): -14.8 ± 0.2%
